Structures are written as SMILES.

This is an account of results in publication PMC8911181, “A Novel CDK4/6 and PARP Dual Inhibitor ZC-22 Effectively Suppresses Tumor Growth and Improves the Response to Cisplatin Treatment in Breast and Ovarian Cancer” (International Journal of Molecular Sciences, 2022).

This test has as its system MDA-MB-231 xenograft tumors. Description: Breast cancer xenograft mouse model, tumor growth. It is filed as in vivo, mice. As to the method: Six-week-old female athymic nude mice (Homozygous) were purchase from Vital River Laboratories (Beijing, China) and maintained under the guidelines for laboratory animals of Nankai university (NKU). Mice were injected subcutaneously with 2 × 10^6 MDA-MB-231 or 8 × 10^6 OVCAR5 cells. When tumors were 50–100 mm^3 in size, the mice were randomly grouped and treated intraperitoneal (i.p.) with 50 mg/kg of Olaparib, 50 mg/kg of LY2835219, 50 mg/kg of ZC-22, or 1.5 mg/kg of cisplatin alone or in combinations or with the vehicle (PBS containing 10% DMSO and 10% 2-hydroxy-propyl-β-cyclodextrin) every 2 days. Tumor volume was measured every 3–4 days, which was calculated as Length × Width^2/2. At the end of the study, tumor and major organ tissues were harvested by surgery. For histopathological analysis, tissue samples were washed with PBS, fixed in 4% paraformaldehyde (PFA), paraffin-embedded, and sectioned into 7 μm thickness. For Western blot analysis, the tissue samples were dissociated by a tissue-tearor in RIPA buffer containing 1×protease and phosphatase inhibitors.
Figure 4 ZC-22 suppresses growth of breast cancer xenografts. Female NOD-SCID mice were injected subcutaneously with 2 × 10^6 of MDA-MB-231 cells and treated ip daily with 50 mg/kg of Olaparib (OLA) or LY2835219 (LY-2) alone or together (OLA + LY-2) or with ZC-22 alone starting on day 10 after injection of cells when tumors were 50–80 mm^3 in size. Tumor volumes were measured every 2–3 days. […] (B,C) Pictures of (B) and quantification of the size of (C) the MDA-MB-231 xenograft tumors at the end points. […] (E) Quantification of Ki67 (Left) and γH2A.X (Right)-positive cells in immunohistochemical staining of the xenograft tumor tissues. […]
Figure 6 ZC-22 sensitizes breast cancer cells to cisplatin treatment in vivo. […] Tumor volumes were measured every 2–3 days. […] (B,C) Pictures (B) and quantification of the size (C) of the MDA-MB-231 xenograft tumors at the end points. […] (E) Quantification of Ki67 (left) and γH2A.X (right)-positive cells in immunohistochemical staining of the xenograft tumor tissues. […]

Consider `Cc1nc2c(F)cc(-c3nc(Nc4ccc(N5CCN(C(=O)c6cc(Cc7n[nH]c(=O)c8ccccc78)ccc6F)CC5)cn4)ncc3F)cc2n1C(C)C` [ZC-22, 4-(4-fluoro-3-(4-(6-((5-fluoro-4-(4-fluoro-1-isopropyl-2-methyl-1H-benzo[d]imidazole-6-yl)pyrimidin-2-yl)amino)pyridin-3-yl)piperazine-1-carbonyl)benzyl)phthalazin-1(2H)-one], for which the “growth of the xenograft tumors” value (1.5 mg/kg cisplatin or 50 mg/kg ZC-22 ip alone or together) is recorded as “effectively inhibit growth of the xenograft tumors”. In addition, the “anti-tumor efficacy (tumor growth)” value (50 mg/kg ip, Olaparib and LY2835219 alone or together, or ZC-22) was “even higher therapeutic efficacy than combined Olaparib and Abemaciclib therapy”.
